In patent US10723692B2, “Lipids and lipid nanoparticle formulations for delivery of nucleic acids” (Acuitas Therapeutics, Inc., priority 2014, dated 2020):
Read-outs that look alike come from different tables or passages of the source.

Legend:
[1] = system: luciferase expression in the liver; assay: In vivo luciferase mRNA expression rodent model (LNP, liver luciferase); parameters: species or system C57BL/6 mice; conditions: tail vein, liver 4 hours; for Liver Luc @ 0.3 mg/kg (ng luc/g liver): 0.3 mg mRNA/kg; for Liver Luc @ 1.0 mg/kg (ng luc/g liver): 1.0 mg mRNA/kg
Method: Cationic lipid (MC3), DSPC, cholesterol and PEG-lipid were solubilized in ethanol at a molar ratio of 50:10:38.5:1.5. Lipid nanoparticles (LNP) were prepared at a total lipid to mRNA weight ratio of approximately 10:1 to 30:1. Briefly, the mRNA was diluted to 0.2 mg/mL in 10 to 50 mM citrate buffer, pH 4. Syringe pumps were used to mix the ethanolic lipid solution with the mRNA aqueous solution at a ratio of about 1:5 to 1:3 (vol/vol) with total flow rates above 15 ml/min. The ethanol was then removed and the external buffer replaced with PBS by dialysis. Finally, the lipid nanoparticles were filtered through a 0.2 μm pore sterile filter. Lipid nanoparticle particle size was 70-90 nm diameter as determined by quasi-elastic light scattering using a Nicomp 370 submicron particle sizer (Santa Barbara, Calif.).
Studies were performed in 6-8 week old female C57BL/6 mice (Charles River) according to guidelines established by an institutional animal care committee (ACC) and the Canadian Council on Animal Care (CCAC). Varying doses of mRNA-lipid nanoparticle were systemically administered by tail vein injection and animals euthanized at specific time points (1, 2, 4, 8 and 24 hrs) post-administration. Liver and spleen were collected in pre-weighted tubes, weights determined, immediately snap frozen in liquid nitrogen and stored at −80° C. until processing for analysis.
For liver, approximately 50 mg was dissected for analyses in a 2 mL FastPrep tubes (MP Biomedicals, Solon Ohio). ¼″ ceramic sphere (MP Biomedicals) was added to each tube and 500 μL of Glo Lysis Buffer—GLB (Promega, Madison Wis.) equilibrated to room temperature was added to liver tissue. Liver tissues were homogenized with the FastPrep24 instrument (MP Biomedicals) at 2×6.0 m/s for 15 seconds. Homogenate was incubated at room temperature for 5 minutes prior to a 1:4 dilution in GLB and assessed using SteadyGlo Luciferase assay system (Promega). Specifically, 50 μL of diluted tissue homogenate was reacted with 50 μL of SteadyGlo substrate, shaken for 10 seconds followed by 5 minute incubation and then quantitated using a CentroXS^3 LB 960 luminometer (Berthold Technologies, Germany). The amount of protein assayed was determined by using the BCA protein assay kit (Pierce, Rockford Ill.). Relative luminescence units (RLU) were then normalized to total ug protein assayed. To convert RLU to ng luciferase a standard curve was generated with QuantiLum Recombinant Luciferase (Promega). Based in the data provided in FIG. 1, the four-hour time point was chosen for efficacy evaluation of the lipid formulations (see EXAMPLE 48).
The FLuc mRNA (L-6107) from Trilink Biotechnologies will express a luciferase protein, originally isolated from the firefly, Photinus pyralis. FLuc is commonly used in mammalian cell culture to measure both gene expression and cell viability. It emits bioluminescence in the presence of the substrate, luciferin. This capped and polyadenylated mRNA is fully substituted with 5-methylcytidine and pseudouridine.
The cationic lipids shown in Table 2 have previously been tested with nucleic acids. For comparative purposes, these lipids were also used to formulate lipid nanoparticles containing the FLuc mRNA (L-6107) using an in line mixing method, as described in EXAMPLE 47 and in PCT/US10/22614, which is hereby incorporated by reference in its entirety. Lipid nanoparticles were formulated using the following molar ratio: 50% Cationic lipid/10% distearoylphosphatidylcholine (DSPC)/38.5% Cholesterol/1.5% PEG lipid (“PEG-DMG”, i.e., (1-(monomethoxy-polyethyleneglycol)-2,3-dimyristoylglycerol, with an average PEG molecular weight of 2000). Relative activity was determined by measuring luciferase expression in the liver 4 hours following administration via tail vein injection as described in EXAMPLE 47. The activity was compared at a dose of 0.3 and 1.0 mg mRNA/kg and expressed as ng luciferase/g liver measured 4 hours after administration, as described in EXAMPLE 47. […]

[2] = system: hFIX protein in mouse plasma; assay: LNP delivery of human FIX mRNA, hFIX protein in mouse plasma by ELISA; assay type: in vivo; conditions: for Human Factor IX @ 0.3 mg/kg (ng mL in plasma): 0.3 mg/kg hFIX mRNA LNP; for Human Factor IX @ 0.3 mg/kg (ng mL in plasma) / Human Factor IX @ 1.0 mg/kg (ng mL in plasma): ELISA; for Human Factor IX @ 1.0 mg/kg (ng mL in plasma): 1.0 mg/kg hFIX mRNA LNP; for measured levels of hFIX expression (assessment): hFIX mRNA LNPs
Method: The LNPs with cationic lipids shown in Table 7 are formulated with mRNA coding for human FIX (e.g. TriLink Biotechnologies product L-6110) using the following molar ratio of lipids: 50% lipid/10% distearoylphosphatidylcholine (DSPC)/38.5% Cholesterol/1.5% PEG-lipid as described in EXAMPLE 47. Plasma protein is analyzed by ELISA using a commercially available kit (e.g. Abcam ab108831) as per the suppliers instructions. […] The duration of the hFIX at these levels is ˜15 hours or longer.

[3] = pKa of formulated cationic lipids in lipid nanoparticles (TNS fluorescence assay); assay type: physicochemical
Method: As described elsewhere, the pKa of formulated cationic lipids is correlated with the effectiveness of LNPs for delivery of nucleic acids (see Jayaraman et al, Angewandte Chemie, International Edition (2012), 51(34), 8529-8533; Semple et al, Nature Biotechnology 28, 172-176 (2010)). The preferred range of pKa is ˜5 to ˜7. […] Lipid nanoparticles comprising of cationic lipid/DSPC/cholesterol/PEG-lipid (50/10/38.5/1.5 mol %) in PBS at a concentration of 0.4 mM total lipid are prepared using the in-line process as described in EXAMPLE 47. TNS was prepared as a 100 μM stock solution in distilled water. Vesicles were diluted to 24 μM lipid in 2 mL of buffered solutions containing, 10 mM HEPES, 10 mM MES, 10 mM ammonium acetate, 130 mM NaCl, where the pH ranged from 2.5 to 11. An aliquot of the TNS solution was added to give a final concentration of 1 μM and following vortex mixing fluorescence intensity was measured at room temperature in a SLM Aminco Series 2 Luminescence Spectrophotometer using excitation and emission wavelengths of 321 nm and 445 nm. A sigmoidal best fit analysis was applied to the fluorescence data and the pKa was measured as the pH giving rise to half-maximal fluorescence intensity (see FIG. 2).

[4] = system: cherry red (CR) red fluorescent protein expression in liver; assay: LNP activity using cherry red (CR) mRNA, liver sections by confocal fluorescence microscopy; assay type: in vivo, C57BL/6 mice
Method: LNPs using compound 6 are formulated as described in EXAMPLE 47 with mRNA coding for a red fluorescent protein called cherry red (CR, e.g. TriLink Biotechnologies product L-6113). In vivo studies are conducted as described in EXAMPLE 47 and sections of liver tissue are processed and observed by confocal fluorescence microscopy at 4, 6 and 24 hours post administration. Expression levels peaked at around 6 hours and maintained to at least 24 hours.

[5] = Table 3, LNP with 1.5% PEG-DMA (42-6), FLuc mRNA
[6] = Table 5, LNP with 1.5% PEG-lipid (42-6)
[7] = Table 3, in LNP cationic lipid/DSPC/cholesterol/PEG-lipid 50/10/38.5/1.5 mol %, read-out: pKa
[8] = Table 6, LNP with 1.5% PEG-lipid (42-6)

pKa [3, 7]	Structure (SMILES)	Liver Luc @ 0.3 mg/kg (ng luc/g liver) [1, 5] [ng luc/g liver]	Liver Luc @ 1.0 mg/kg (ng luc/g liver) [1, 5] [ng luc/g liver]	Human Factor IX @ 0.3 mg/kg (ng mL in plasma) [2] [ng·mL]	Human Factor IX @ 1.0 mg/kg (ng mL in plasma) [2] [ng·mL]	other results
6.28	CCCCCCCCC(CCCCCC)C(=O)OCCCCCCN(CCCCCCOC(=O)C(CCCCCC)CCCCCCCC)CCN(C)C (stereo not drawn) [Compound 5]	1571 ± 414	12900 ± 4083	1097 ± 357	4556 ± 686	Liver Luc @ 0.3 mg/kg (ng luc/g liver) [1, 6]: 1571 ± 414 ng luc/g liver; Liver Luc @ 1.0 mg/kg (ng luc/g liver) [1, 6]: 12900 ± 4083 ng luc/g liver; measured levels of hFIX expression (assessment) [2]: clinically relevant; pKa ([3]; Table 5, in LNP): 6.28
6.12	CCCCCCCCC(CCCCCC)C(=O)OCCCCCCCCCN(CCCCCCCCCOC(=O)C(CCCCCC)CCCCCCCC)CCN(C)C (stereo not drawn) [Compound 6]	2015 ± 135	16006 ± 2487	713 ± 148	2697 ± 345	Liver Luc @ 0.3 mg/kg (ng luc/g liver) [1, 6]: 2015 ± 135 ng luc/g liver; Liver Luc @ 1.0 mg/kg (ng luc/g liver) [1, 6]: 16006 ± 2487 ng luc/g liver; Liver Luc @ 0.3 mg/kg (ng luc/g liver) [1, 8]: 2015 ± 135 ng luc/g liver; Liver Luc @ 1.0 mg/kg (ng luc/g liver) [1, 8]: 16006 ± 2487 ng luc/g liver; measured levels of hFIX expression (assessment) [2]: clinically relevant; pKa ([3]; Table 5, in LNP): 6.12; pKa ([3]; Table 6, in LNP): 6.12; time of peak expression levels ([4]; liver sections observed at 4, 6 and 24 hours post administration): around 6 hours; distribution of expression in tissue sections ([4]; liver sections, confocal fluorescence microscopy): homogeneous expression throughout the liver; expression maintained to ([4]; liver sections, post administration): at least 24 hours
6.27	CCCCCCCCC(CCCCCC)COC(=O)CCCCCN(CCCCCC(=O)OCC(CCCCCC)CCCCCCCC)CCN(C)CC (stereo not drawn) [Compound 33]	711 ± 272	4448 ± 512			
6.21	CC(C)=CCCC(C)CC(=O)OCCCCCCCCCCCCN(CCCCCCCCCCCCOC(=O)CC(C)CCC=C(C)C)CCN(C)C (stereo not drawn) [Compound 35]	35 ± 15	101 ± 69			
6.24	CCCCCCC(CCCC)C(=O)OCCCCCCCCCN(CCCCCCCCCOC(=O)C(CCCC)CCCCCC)CCN(C)C (stereo not drawn) [Compound 38]	977 ± 336	7135 ± 1020			
5.82	CCCCCCCCCCCCC(CCCCCCCCCC)C(=O)OCCCCCCN(CCCCCCOC(=O)C(CCCCCCCCCC)CCCCCCCCCCCC)CCN(C)C (stereo not drawn) [Compound 39]	36 ± 13	326 ± 81			
6.38	CCCCCCCCCCC(CCCCCCCC)C(=O)OCCCCCCCCCN(CCCCCCCCCOC(=O)C(CCCCCCCC)CCCCCCCCCC)CCN(C)C (stereo not drawn) [Compound 40]	236 ± 71	1704 ± 571			
5.91	CCCCCCCCCCCCC(CCCCCCCCCC)C(=O)OCCCCCCCCCN(CCCCCCCCCOC(=O)C(CCCCCCCCCC)CCCCCCCCCCCC)CCN(C)C (stereo not drawn) [Compound 41]	63 ± 27	799 ± 619			
	CCCCC/C=C\C/C=C\CCCCCCCCC(CCCCCCCC/C=C\C/C=C\CCCCC)OC(=O)CCCN(C)C [MC3, reference compound]			336 ± 21	1154 ± 25	pKa ([3]; Table 5, in LNP, read-out: pKa): 6.09
